Measurements as given in patent publication US20100267555A1, “Fungicidal mixtures II” (BASF SE, priority 2007, published 2010).
Read-outs that look alike come from different tables or passages of the source.

Tests used:
Type in all cases: cell-based
Septoria tritici = test: Activity against leaf blotch on wheat caused by Septoria tritici in the microtiter test (Septtr); conditions: single active compound, day 7 after inoculation
Phytophthora infestans = conditions: single active compound, 7 days after inoculation
Pyricularia oryzae = test: microbe, parasite or virus in culture; conditions: 7 days after inoculation; for inhibition of growth at 4 ppm: read-out: Observed efficacy, single active compound, 4 ppm; for inhibition of growth at 16 ppm: read-out: Observed efficacy, single active compound, 16 ppm; for inhibition of growth at 0.063 ppm: read-out: Observed efficacy, single active compound, 0.063 ppm; for Observed efficacy: single active compound

Structure (SMILES): Fc1ccc([C@]2(Cn3cncn3)O[C@H]2c2ccccc2Cl)cc1 (racemic) [Epoxiconazole, (2RS,3SR)-1-[3-(2-chlorophenyl)-2,3-epoxy-2-(4-fluorophenyl)propyl]-1H-1,2,4-triazole, reference compound]
- Observed efficacy (Septoria tritici; 0.063 ppm): 50%

Structure (SMILES): O=C(OCc1cccc(C(F)(F)F)c1)[C@H](c1ccc(F)cc1F)[C@@H](O)c1cccnc1 (stereo in doubt) [I.57-RS, 3-trifluoromethylphenylmethyl 3-hydroxy-2-(2,4-difluorophenyl)-3-(3-pyridyl)propanoate]
- Observed efficacy (Phytophthora infestans; 4 ppm): 3%
- inhibition of growth at 4 ppm (Pyricularia oryzae; Pyricularia oryzae, 168 h): 0%
- inhibition of growth at 16 ppm (Pyricularia oryzae; Pyricularia oryzae, 168 h): 9%
- Observed efficacy (Septoria tritici; 4 ppm): 26%

Structure (SMILES): O=C(OCc1cccc(C(F)(F)F)c1)[C@H](c1cccs1)[C@@H](O)c1cccnc1 (stereo in doubt) [I.59-RS, 3-trifluoromethylphenylmethyl 3-hydroxy-2-(2-thienyl)-3-(3-pyridyl)propanoate]
- Observed efficacy (Phytophthora infestans; 4 ppm): 11%
- inhibition of growth at 0.063 ppm (Pyricularia oryzae; Pyricularia oryzae, 168 h): 1%
- inhibition of growth at 16 ppm (Pyricularia oryzae; Pyricularia oryzae, 168 h): 14%
- Observed efficacy (Pyricularia oryzae; 4 ppm): 0%
- Observed efficacy (Septoria tritici; 4 ppm): 14%

Structure (SMILES): COC(=O)Nc1nc2ccccc2[nH]1 [Carbendazim, methyl (1H-benzoimidazol-2-yl)-carbamate, reference compound]
- inhibition of growth at 0.25 ppm (Pyricularia oryzae; Pyricularia oryzae, 168 h, read-out: Observed efficacy, single active compound, 0.25 ppm): 19%

Structure (SMILES): N#Cc1c(Cl)c(Cl)c(Cl)c(C#N)c1Cl [Chlorothalonil, 2,4,5,6-tetrachloroisophthalonitrile, reference compound]
- Observed efficacy (Phytophthora infestans; 0.25 ppm): 16%

Structure (SMILES): Cc1ccc(-c2c(Cl)nc(C#N)n2S(=O)(=O)N(C)C)cc1 [Cyazofamid, 4-chloro-2-cyano-N,N-dimethyl-5-(4-methylphenyl)-1H-imidazole-1-sulfonamide, reference compound]
- Observed efficacy (Phytophthora infestans; 0.016 ppm): 56%

Structure (SMILES): Cc1cc(C2CC2)nc(Nc2ccccc2)n1 [Cyprodinil, (4-cyclopropyl-6-methylpyrimidin-2-yl)phenylamine, reference compound]
- inhibition of growth at 4 ppm (Pyricularia oryzae; Pyricularia oryzae, 168 h): 71%

Structure (SMILES): CO/N=C(/C1=NOCCO1)c1ccccc1Oc1ncnc(Oc2ccccc2Cl)c1F [Fluoxastrobin, (E)-{2-[6-(2-chlorophenoxy)-5-fluoropyrimidin-4-yloxy]phenyl}(5,6-dihydro-1,4,2-dioxazin-3-yl)methanone O-methyloxime, reference compound]
- inhibition of growth at 0.063 ppm (Pyricularia oryzae; Pyricularia oryzae, 168 h): 57%
- Observed efficacy (Septoria tritici; 0.25 ppm): 58%

Structure (SMILES): O=C(OCc1cccc(C(F)(F)F)c1)[C@H](c1ccc(F)cc1F)[C@@H](O)c1cccnc1 [I.57-RR, 3-trifluoromethylphenylmethyl 3-hydroxy-2-(2,4-difluorophenyl)-3-(3-pyridyl)propanoate]
- Observed efficacy (Phytophthora infestans; 0.016 ppm): 0%
- Observed efficacy (Septoria tritici; 0.063 ppm): 4%

Structure (SMILES): O=C(OCc1cccc(C(F)(F)F)c1)[C@H](c1cccs1)[C@@H](O)c1cccnc1 [I.59-RR, 3-trifluoromethylphenylmethyl 3-hydroxy-2-(2-thienyl)-3-(3-pyridyl)propanoate]
- Observed efficacy (Phytophthora infestans; 4 ppm): 7%
- inhibition of growth at 4 ppm (Pyricularia oryzae; Pyricularia oryzae, 168 h): 0%
- Observed efficacy (Pyricularia oryzae; 16 ppm): 8%

Structure (SMILES): CC(C)NC(=O)N1CC(=O)N(c2cc(Cl)cc(Cl)c2)C1=O [Iprodione, N-isopropyl-3-(3,5-dichlorophenyl)-2,4-dioxoimidazolidine-1-carboxamide, reference compound]
- inhibition of growth at 4 ppm (Pyricularia oryzae; Pyricularia oryzae, 168 h): 18%

Structure (SMILES): Cc1ccc(C(C)NC(=O)[C@@H](NC(=O)OC(C)C)C(C)C)cc1 (stereo partly drawn) [Iprovalicarb, isopropyl [(1S)-2-methyl-1-(1-p-tolylethylcarbamoyl)propyl]carbamate, reference compound]
- Observed efficacy (Phytophthora infestans; 0.25 ppm): 9%

Structure (SMILES): COC=C(C(=O)OC)c1ccccc1COc1cccc(C(F)(F)F)n1 [Picoxystrobin, methyl 3-methoxy-2-[2-(6-trifluoromethylpyridin-2-yloxymethyl)phenyl]acrylate, reference compound]
- inhibition of growth at 0.063 ppm (Pyricularia oryzae; Pyricularia oryzae, 168 h): 49%

Structure (SMILES): OC(Cc1ccccc1Cl)(Cn1nc[nH]c1=S)C1(Cl)CC1 (stereo not shown) [Prothioconazol, 2-[2-(1-chlorocyclopropyl)-3-(2-chlorophenyl)-2-hydroxypropyl]-2,4-dihydro-[1,2,4]triazole-3-thione, reference compound]
- inhibition of growth at 4 ppm (Pyricularia oryzae; Pyricularia oryzae, 168 h): 15%
